Results reported in paper PMC10463376, “Design, synthesis, in vitro anticancer, molecular docking and SAR studies of new series of pyrrolo[2,3-d]pyrimidine derivatives” (BMC Chemistry, 2023).
In brackets after ≈: the same amount, converted by molar mass.

Key:
MCF7 breast cancer cells = assay: MTT assay, MCF7; details: for IC50 / cytotoxicity at 100 µg/mL: Homo sapiens, MCF7, 72 h; for IC50: read-out: IC50 MCF7
Source text: (§1) All of the following steps were done in a sterile Laminar flow class II biosafety cabinet (Baker, SG406INT, Sanford, ME, USA). DMEM was used as a suspension medium for breast cancer (MCF7), colorectal cancer (HCT116), prostate cancer (PC3), liver cancer (HePG2), pancreatic cancer (PACA2) and lung cancer (A549), while normal cell line (BJ1) was suspended in DMEM-F12 medium. The selected cell lines were purchased from American Type Culture Collection (ATCC). The media were supplemented with a 1% antimycotic-antibiotic mixture (10,000 µg/ml streptomycin sulfate, 25 µg/ml Amphotericin B, and 10,000 U/ml Potassium Penicillin) and 1% L-glutamine. 10 × 10^4cells/well were seeded in 96 well microtiter plates and incubated for 24 h at 37 ℃ under 5% carbon dioxide using a water-jacketed Carbon dioxide incubator (Sheldon, SCO5A, OR, USA). […] After the incubation time of 72 h, the medium was removed. Afterward, 40 µl MTT salt ([…]) was added to each well and kept for 4 h under the same conditions of 37 °C and 5% carbon dioxide. Finally, 200 μl of 10% Sodium dodecyl sulfate (SDS) in deionized water was added to each well and incubated overnight at 37 °C. The step of SDS addition was done to stop the reaction and dissolve the formed formazan crystals. The absorbance was then measured at a wavelength of 595 nm and the reference wavelength was set at 620 nm using a microplate multi-well reader (Bio-Rad Laboratories Inc., model 3356, California, USA). […] A statistical significance analysis was determined between the samples and the negative control using an independent t-test by SPSS 11 program. Dimethyl sulfoxide (DMSO) was the vehicle that dissolved our synthesized compounds and its concentration in the cells was less than 0.2%. IC50 values were calculated using the GraphPad Prism 6 program. The degree of selectivity of the synthetic compounds was expressed as SI = IC50 of a pure compound in a normal cell line/IC50 of the same pure compound in the cancer cell line, where IC50 is the concentration of the compound required to kill 50% of the cells.

[1] = test system: PC3 prostate cancer cells; assay: MTT assay, PC3; details: Homo sapiens, 72 h; for cytotoxicity at 100 µg/mL: read-out: MTT cell proliferation mortality assay (%) PC3, at 100 μg/ml, 72 h
Source text: as §1

A549 lung cancer cells = assay: MTT assay, A549; details: for cytotoxicity at 100 µg/mL: read-out: MTT cell proliferation mortality assay (%) A549, at 100 μg/ml, 72 h
Source text: as §1

[2] = test system: HCT116 colorectal cancer cells; assay: MTT assay, HCT116; details: Homo sapiens, HCT-116, 72 h, read-out: MTT cell proliferation mortality assay (%) HCT116, at 100 μg/ml, 72 h
Source text: as §1

[3] = test system: PACA2 pancreatic cancer cells; assay: MTT assay, PACA2; details: Homo sapiens, PaCa-2, 72 h; for cytotoxicity at 100 µg/mL: read-out: MTT cell proliferation mortality assay (%) PACA2
Source text: as §1

HePG2 liver cancer cells = assay: MTT assay, HePG2; details: Homo sapiens, HepG2, 72 h; for cytotoxicity at 100 µg/mL: read-out: MTT cell proliferation mortality assay (%) HePG2
Source text: as §1

[4] = MTT assay, normal cell line BJ1; format: cell-based; details: human, at 100 μg/ml, read-out: MTT cell proliferation mortality assay (%) BJ1
Source text: as §1

[5] = read-out: MTT cell proliferation mortality assay (%) MCF7

| SMILES | IC50 (MCF7 breast cancer cells) | cytotoxicity at 100 µg/mL (MCF7 breast cancer cells; [5]) | cytotoxicity at 100 µg/mL [1] | IC50 (A549 lung cancer cells; Homo sapiens, A549, 72 h, read-out: IC50 A549) | cytotoxicity at 100 µg/mL (A549 lung cancer cells; Homo sapiens, A549, 72 h) | cytotoxicity (A549 lung cancer cells; read-out: MTT cell proliferation mortality assay (%) A549, at 100 μg/ml, 72 h) | cytotoxicity at 100 µg/mL [2] | IC50 ([3]; read-out: IC50 PACA2) | cytotoxicity at 100 µg/mL [3] | cytotoxicity at 100 µg/mL (HePG2 liver cancer cells) | cytotoxicity at 72 h, 100 μg/ml [4] | cytotoxicity (MCF7 breast cancer cells; read-out: MTT cell proliferation mortality assay (%) MCF7, at 100 μg/ml, 72 h) | IC50 ([1]; read-out: IC50 PC3) | IC50 (HePG2 liver cancer cells; read-out: IC50 HePG2) |
| --- | --- | --- | --- | --- | --- | --- | --- | --- | --- | --- | --- | --- | --- | --- |
| Clc1ccc(-n2c(Cl)c(-c3ccc(Br)cc3)c3c(Cl)ncnc32)c(Cl)c1 [Compound 4a, 5-(4-bromophenyl)-4,6-dichloro-7-(2,4-dichlorophenyl)-7H-pyrrolo[2,3-d]pyrimidine] | 32.4 ± 0.8 mg/L (≈ 66.4 µM) | 100% | 53 ± 0.7% | 68.9 ± 0.5 mg/L (≈ 141 µM) | 80 to 90% | 79.4 ± 1.6% | 74.2 ± 2.5% | 24.1 ± 1 mg/L (≈ 49.4 µM) | 100% | 43.5 ± 2.2% | 74.6 ± 0.6% |  |  |  |
| COc1ccc(-c2c(Cl)n(-c3ccc(Cl)cc3Cl)c3ncnc(N4CCCC4)c23)cc1OC [Compound 11b, 6-chloro-7-(2,4-dichlorophenyl)-5-(3,4-dimethoxyphenyl)-4-(pyrrolidin-1-yl)-7H-pyrrolo[2,3-d]pyrimidine] | 48.4 ± 0.8 mg/L (≈ 96.1 µM) | 80.4 ± 1.8% | 94.6 ± 1.3% |  | 11.6 ± 0.9% |  | 33.5 ± 0.4% |  | 25.6 ± 0.9% | 63.1 ± 0.5% | 56.9 ± 0.1% | 80 to 95% | 27.7 ± 0.1 mg/L (≈ 55 µM) |  |
| CSc1ncnc2c1c(-c1ccc(Br)cc1)c(Cl)n2-c1ccc(Cl)cc1Cl [Compound 13, 5-(4-bromophenyl)-6-chloro-7-(2,4-dichlorophenyl)-4-(methylthio)-7H-pyrrolo[2,3-d]pyrimidine] |  | 3.5 ± 0.6% | 32.2 ± 1.7% |  | 42.6 ± 1.2% |  | 60.2 ± 1% |  | 58.8 ± 1.2% | 12.4 ± 1.9% | 25.3 ± 0.4% |  |  |  |
| Clc1ccc(-n2c(Cl)c(-c3ccc(Br)cc3)c3c(N4CCOCC4)nc(C(Cl)(Cl)Cl)nc32)c(Cl)c1 [Compound 19, 4-(5-(4-bromophenyl)-6-chloro-7-(2,4-dichlorophenyl)-2-(trichloromethyl)-7H-pyrrolo[2,3-d]pyrimidin-4-yl)morpholine] |  | 62.3 ± 3.4% | 3.7 ± 1.1% |  | 5.6 ± 0.7% |  | 35.9 ± 1.5% |  | 31.2 ± 5.1% | 100% | 52.7 ± 1.4% |  |  | 19.4 ± 0.8 mg/L (≈ 29.6 µM) |
